Experimental data: ChEMBL document CHEMBL1201862, “PubChem BioAssay data set” (2004)
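A five-concentration, 48-hour dose response in 96-well plates underlies each endpoint, interpolated linearly between surrounding concentrations. GI50 = concentration required for 50% inhibition of growth.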 Activity calls are given as the source filed them. Rule as the data show it: active = GI50 up to about 1.1 µM and inactive = higher.

Legend:
Assay in all cases: NCI-60 cell line screen, 48 h
SN12C = test system: SN12C
RPMI-8226 = test system: RPMI-8226
MOLT-4 = test system: MOLT-4
OVCAR-8 = test system: OVCAR-8
COLO 205 = test system: COLO 205
SK-MEL-28 = test system: SK-MEL-28
SK-MEL-5 = test system: SK-MEL-5
SF-268 = test system: SF-268
CCRF-CEM = test system: CCRF-CEM
UACC-257 = test system: UACC-257
SK-OV-3 = test system: SK-OV-3
NCI-H23 = test system: NCI-H23
HCT-15 = test system: HCT-15
U-251 = test system: U-251
786-0 = test system: 786-0
SNB-19 = test system: SNB-19
HCC 2998 = test system: HCC 2998
SR = test system: SR
CAKI-1 = test system: CAKI-1

| Compound | GI50 (SN12C) | GI50 (RPMI-8226) | GI50 (MOLT-4) | GI50 (OVCAR-8) | GI50 (COLO 205) | GI50 (SK-MEL-28) | GI50 (SK-MEL-5) | GI50 (SF-268) | GI50 (CCRF-CEM) | GI50 (UACC-257) | GI50 (SK-OV-3) | GI50 (NCI-H23) | GI50 (HCT-15) [µM] | GI50 (U-251) | GI50 (786-0) | GI50 (SNB-19) | GI50 (HCC 2998) | GI50 (SR) | GI50 (CAKI-1) |
| --- | --- | --- | --- | --- | --- | --- | --- | --- | --- | --- | --- | --- | --- | --- | --- | --- | --- | --- | --- |
| O=C1C(=Cc2cccs2)C(=O)N(CCc2ccccc2)S(=O)(=O)N1CCc1ccccc1 | > 50 µM (inactive) | 20.7 µM (inactive) | > 50 µM (inactive) | > 50 µM (inactive) | > 50 µM (inactive) | > 50 µM (inactive) | > 50 µM (inactive) | 36.2 µM (inactive) | 36.9 µM (inactive) | > 50 µM (inactive) | > 50 µM (inactive) | > 50 µM (inactive) | > 50 | 12.9 µM (inactive) | > 50 µM (inactive) | > 50 µM (inactive) | > 50 µM (inactive) | > 50 µM (inactive) | – |
| Cc1cccc(/N=C/c2ccc(N(CCC#N)S(=O)(=O)c3ccccc3)cc2C)c1 | > 100 µM (inactive) | 63.4 µM (inactive) | 29.2 µM (inactive) | 42.9 µM (inactive) | > 100 µM (inactive) | > 100 µM (inactive) | > 100 µM (inactive) | 58.9 µM (inactive) | 19.1 µM (inactive) | > 100 µM (inactive) | > 100 µM (inactive) | > 100 µM (inactive) | 98.6 | > 100 µM (inactive) | > 100 µM (inactive) | > 100 µM (inactive) | > 100 µM (inactive) | – | > 100 µM (inactive) |
| COc1ccc(/N=N/c2c(-c3ccccc3)nn(C(=O)CC(=O)Nc3cccc(Cl)c3)c2-c2ccccc2)cc1 | > 100 µM (inactive) | > 100 µM (inactive) | 70.1 µM (inactive) | > 100 µM (inactive) | > 100 µM (inactive) | > 100 µM (inactive) | 72.9 µM (inactive) | > 100 µM (inactive) | > 100 µM (inactive) | > 100 µM (inactive) | > 100 µM (inactive) | 22.6 µM (inactive) | > 100 | > 100 µM (inactive) | > 100 µM (inactive) | > 100 µM (inactive) | 21.5 µM (inactive) | – | 34.5 µM (inactive) |
| Cc1[nH]c2ccccc2c1C(=O)/C=C/c1ccccc1O | > 100 µM (inactive) | – | > 100 µM (inactive) | > 100 µM (inactive) | > 100 µM (inactive) | > 100 µM (inactive) | > 100 µM (inactive) | > 100 µM (inactive) | > 100 µM (inactive) | > 100 µM (inactive) | > 100 µM (inactive) | > 100 µM (inactive) | – | > 100 µM (inactive) | > 100 µM (inactive) | > 100 µM (inactive) | > 100 µM (inactive) | > 100 µM (inactive) | > 100 µM (inactive) |
| Cc1ccc(S(=O)(=O)C(C#N)c2nc3ccccc3nc2-n2cccn2)cc1 (stereo not drawn) | > 100 µM (inactive) | > 100 µM (inactive) | > 100 µM (inactive) | > 100 µM (inactive) | > 100 µM (inactive) | > 100 µM (inactive) | – | > 100 µM (inactive) | > 100 µM (inactive) | > 100 µM (inactive) | > 100 µM (inactive) | > 100 µM (inactive) | > 100 | > 100 µM (inactive) | > 100 µM (inactive) | > 100 µM (inactive) | > 100 µM (inactive) | – | – |
| S=c1c2ccccc2c(=S)n2n1CC=CC2 | > 100 µM (inactive) | > 100 µM (inactive) | > 100 µM (inactive) | > 100 µM (inactive) | > 100 µM (inactive) | > 100 µM (inactive) | > 100 µM (inactive) | > 100 µM (inactive) | > 100 µM (inactive) | > 100 µM (inactive) | > 100 µM (inactive) | > 100 µM (inactive) | > 100 | > 100 µM (inactive) | > 100 µM (inactive) | > 100 µM (inactive) | > 100 µM (inactive) | – | > 100 µM (inactive) |
| CC1(C)CNCC(C)(OCc2ccccc2)C(=O)NC(C)(C)CNCC(C)(OCc2ccccc2)C(=O)N1 (stereo not drawn) | > 10 µM (inactive) | – | > 10 µM (inactive) | > 10 µM (inactive) | – | > 10 µM (inactive) | > 10 µM (inactive) | > 10 µM (inactive) | > 10 µM (inactive) | > 10 µM (inactive) | > 10 µM (inactive) | > 10 µM (inactive) | > 10 | > 10 µM (inactive) | > 10 µM (inactive) | > 10 µM (inactive) | > 10 µM (inactive) | – | – |
| NC(=O)COc1ccc(Br)cc1Br | > 100 µM (inactive) | 51.9 µM (inactive) | > 100 µM (inactive) | > 100 µM (inactive) | > 100 µM (inactive) | > 100 µM (inactive) | > 100 µM (inactive) | > 100 µM (inactive) | – | > 100 µM (inactive) | > 100 µM (inactive) | > 100 µM (inactive) | > 100 | > 100 µM (inactive) | > 100 µM (inactive) | > 100 µM (inactive) | – | > 100 µM (inactive) | > 100 µM (inactive) |
| CCOC(=O)C(=[N+]=[N-])C(=O)CN1C(=O)c2ccccc2C1=O | > 100 µM (inactive) | – | > 100 µM (inactive) | > 100 µM (inactive) | > 100 µM (inactive) | > 100 µM (inactive) | > 100 µM (inactive) | > 100 µM (inactive) | – | > 100 µM (inactive) | > 100 µM (inactive) | > 100 µM (inactive) | > 100 | > 100 µM (inactive) | > 100 µM (inactive) | > 100 µM (inactive) | > 100 µM (inactive) | – | > 100 µM (inactive) |
| Cc1cc(C)nc(NS(=O)(=O)c2ccc(NC(=O)c3cccc4cc5ccccc5nc34)cc2)n1 | 28.5 µM (inactive) | 21.4 µM (inactive) | 19.6 µM (inactive) | 33 µM (inactive) | 39.4 µM (inactive) | 31.2 µM (inactive) | 25.5 µM (inactive) | 16.2 µM (inactive) | 21.4 µM (inactive) | 37.3 µM (inactive) | > 100 µM (inactive) | 25.9 µM (inactive) | 21 | 30.6 µM (inactive) | 39.5 µM (inactive) | 25.7 µM (inactive) | – | – | 50.9 µM (inactive) |
| COC(=O)CCSC(=O)Nc1ccccc1Cl | > 100 µM (inactive) | > 100 µM (inactive) | > 100 µM (inactive) | > 100 µM (inactive) | > 100 µM (inactive) | > 100 µM (inactive) | – | > 100 µM (inactive) | 58.1 µM (inactive) | > 100 µM (inactive) | – | > 100 µM (inactive) | > 100 | > 100 µM (inactive) | > 100 µM (inactive) | > 100 µM (inactive) | > 100 µM (inactive) | > 100 µM (inactive) | > 100 µM (inactive) |
| CC1(C)C(O)OC(O)C1(C)C (stereo not drawn) | 82.2 µM (inactive) | 70 µM (inactive) | 49.2 µM (inactive) | 41.8 µM (inactive) | > 100 µM (inactive) | 43.4 µM (inactive) | 32.8 µM (inactive) | – | 46 µM (inactive) | 34.5 µM (inactive) | > 100 µM (inactive) | – | 28.1 | > 100 µM (inactive) | 93.1 µM (inactive) | 66.8 µM (inactive) | > 100 µM (inactive) | – | > 100 µM (inactive) |
| COC1(C)C(=O)N2C1N(C(=O)OCc1ccccc1)CC2(C)C (stereo not drawn) | > 100 µM (inactive) | > 100 µM (inactive) | > 100 µM (inactive) | > 100 µM (inactive) | > 100 µM (inactive) | > 100 µM (inactive) | > 100 µM (inactive) | > 100 µM (inactive) | > 100 µM (inactive) | > 100 µM (inactive) | – | > 100 µM (inactive) | > 100 | > 100 µM (inactive) | > 100 µM (inactive) | > 100 µM (inactive) | > 100 µM (inactive) | > 100 µM (inactive) | – |
| O=C(N/C(=C\c1cccc([N+](=O)[O-])c1)c1nc2c3c(ccc2[nH]1)C(=O)c1ccccc1C3=O)c1ccccc1 | 28 µM (inactive) | 14.1 µM (inactive) | – | 36.5 µM (inactive) | – | 19.9 µM (inactive) | 31.2 µM (inactive) | 17.8 µM (inactive) | – | – | 6.78 µM (inactive) | 30.3 µM (inactive) | 15 | 34.8 µM (inactive) | 26.1 µM (inactive) | 41.4 µM (inactive) | – | 5.86 µM (inactive) | 7.18 µM (inactive) |
| CCOC(=O)C(C)(C)Oc1ccc2c(C)c(-c3ccc(Cl)cc3)c(=O)oc2c1 | > 100 µM (inactive) | 22.6 µM (inactive) | 20 µM (inactive) | > 100 µM (inactive) | 42.6 µM (inactive) | > 100 µM (inactive) | 13.4 µM (inactive) | > 100 µM (inactive) | 14.5 µM (inactive) | 43.8 µM (inactive) | – | 19.6 µM (inactive) | 34.3 | 42.4 µM (inactive) | > 100 µM (inactive) | 51.1 µM (inactive) | 59 µM (inactive) | 27.7 µM (inactive) | – |
| COc1ccc(C(c2ccc(C(C)C)cc(OC)c2=O)c2ccc(C(C)C)cc(OC)c2=O)cc1 | 16.1 µM (inactive) | 5.06 µM (inactive) | 7.53 µM (inactive) | 16.6 µM (inactive) | 17.2 µM (inactive) | – | 14.3 µM (inactive) | 13.6 µM (inactive) | 10.2 µM (inactive) | 15.5 µM (inactive) | 18.4 µM (inactive) | 16.3 µM (inactive) | 12.7 | 13.7 µM (inactive) | 16.6 µM (inactive) | 15.9 µM (inactive) | – | 10.4 µM (inactive) | 18.9 µM (inactive) |
